Reference: patent US20100256148A1, “USE OF CFMS INHIBITOR FOR TREATING OR PREVENTING BONE CANCER AND THE BONE LOSS AND BONE PAIN ASSOCIATED WITH BONE CANCER” (priority 2007, published 2010)
Where a name gives a salt, the structure may show the parent alone. Read-outs that look alike come from different tables or passages of the source. Marks after values point to notes of the source that are not given here.

Columns and labels:
H460, MDA-MB-231, A375 = experiment: Growth factor-independent proliferation of adenocarcinoma cells; format: cell-based, human
[1] = test system: MRMT-1 rat mammary gland carcinoma cells; experiment: Rat MRMT-1 bone metastasis model (osteolysis, osteoclasts, tumor); format: in vivo; set-up: key to Microradiograph score (five point visual score): 0 = no destruction to 5 = bi-cortical bone loss/fracture; key to Trabecular bone vol score (three point visual score): 0 = none, 1 = 1-10%, 2 = >10-<40% (normal), 3 = >40% area; key to Tumor vol score (three point visual score): 0 = none, 1 = small, 2 = moderate, 3 = large tumor; conditions: for Microradiograph score (five point visual score) / Osteoclast Counts (TRAP positive cells, mean of three 200x fields) / Tumor vol score (three point visual score) / Trabecular bone vol score (three point visual score): Day 3 to Day 17, mean ± SEM
Experimental: Rat MRMT-1 bone metastasis model. Inoculation of rat mammary MRMT-1 adenocarcinoma cells into tibiae has been described as a bone metastasis model (Medhurst S J, et al., Pain 2002; 96:129-40. An adaptation of the model (Roudier M P, et al., Clin Exp Metastasis 2006, 23:167-75) was performed by MDS Pharma Services (Bothel, Wash.). Female Sprague-Dawley rats (Harlan Sprague Dawley, Inc., Indianapolis, Ind.) approximately 125-150 grams were acclimated one week. The animals were anesthetized with ketamine/xylazine, and the right leg area was shaved and scrubbed with chlorhexadine and 70% ethanol (SOP-SUR026). A 1-cm rostral-caudal incision was made in the skin over the top half of the tibia. Blunt-dissection exposed the proximal tibia, and a Hamilton syringe guided by a 23-gauge needle was used to inject 3 μl of saline (sham) or saline containing 3×10^4 MRMT-1 cells into the medullary cavity of the right proximal tibia of each rat. The injection site was closed with bone wax. The wound was closed with surgical staples. […] To serve as a control, a fourth group was dosed QOD sc with 0.03 mg/kg zoledronate in saline. Eight rats were dosed per group. Rats were sacrificed on Day 17. Right tibiae were excised, together with surrounding tumor tissue, and microradiographs prepared using an MX-20 x-ray system (Faxitron X-ray Corporation, Wheeling, Ill.). Microradiographs were scored for tumor-induced osteolysis as follows: 0, no signs of destruction; 1, one to three small radiolucent lesions; 2, three to six lesions and loss of medullary bone; 3, loss of medullary bone and erosion of cortical bone; 4, full thickness uni-cortical bone loss; 5, full thickness bi-cortical bone loss and/or displaced skeletal fracture. The radiographs were used to select representative bones from each group for microCT imaging. All tibia were fixed in 10% neutral buffered formalin for two days, decalcified and sectioned for histopathological evaluation. TRAP staining was performed as described previously in Liu, C., et al., 1987. […] For each tibia, the numbers of tumor-associated TRAP^+ osteoclasts were counted in the three 200×-fields with highest osteoclast frequency. A semi-quantitative three-point scoring method was used to compare treatment groups with regards to trabecular bone volume (3, >40 area; 2, >10%<40% area (normal); 1, 1-10% area; 0, none) and tumor volume (3, large; 2, moderate; 1, small; 0, none).

[2] = test system: NCTC 2472 osteolytic sarcoma cells; experiment: 2472 sarcoma model of secondary bone tumor: osteolysis and histology; format: in vivo, mouse; conditions: for Bone erosion score (visual, scale 0-5, microradiographs): Day 15
Experimental: (§1) 2472 sarcoma model of secondary bone tumor pain and osteolysis. Experiments were performed on adult male C3H/HeJ mice (Jackson Laboratories, Bar Harbor, Me., USA), approximately 7-8 weeks old, weighing 25-30 g at the time of tumor cell injection. An arthrotomy was performed following induction of general anesthesia with ketamine/xylazine (2:1 ratio; intramuscular (i.m.)). A needle was inserted into the intramedullary canal to create a pathway for the sarcoma cells. A depression was then made using a pneumatic dental high speed handpiece. Mice were injected with Hanks buffered saline (HBSS) (20 ul, Sigma, St. Louis, Mo., USA) or HBSS containing the 2472 sarcoma line (ATCC, Rockville, Md., USA). The injection site is sealed with a dental amalgam plug to confine the cells within the intramedullary canal and followed by irrigation with sterile water (hypotonic solution). Finally, incision closure is achieved with a wound clip. Clips are removed at day 5 as not to interfere with behavioral testing.
The extent of tumor-induced bone reorganization (osteolysis) was radiologically assessed using Faxitron analysis (Specimen Radiography System Model MX-20, Faxitron X-ray Corporation, Wheeling, Ill., and Kodak film Min-R 2000, Rochester, N.Y.). Radiographs of tumor-bearing femora were scored on a 0 to 5 scale: (0) normal bone with no signs of destruction; (1) small pits of bone destruction (1-3 in number); (2) increased pitted appearance (3-6) and loss of medullary bone; (3) loss of medullary bone and erosion of cortical bone; (4) full thickness unicortical bone loss; (5) full thickness bicortical bone loss and displaced skeletal fracture.

[3] = test system: NCTC 2472 osteolytic sarcoma cells; experiment: 2472 sarcoma model: pain-related behaviors; format: in vivo, mouse
Experimental: as §1
A variety of behavioral measurements were used to assess the extent of bone cancer pain.
Spontaneous nocifensive behaviors: The number of spontaneous flinches and guarding, representative of nociceptive behavior, were recorded during a 2-minute observation period. Flinches are defined as number of times the animal raises its hindpaw and guarding as the amount of time animals hold the hindpaw aloft while stationary.
Palpation-induced nocifensive behaviors: Mechanical allodynia at the knee joint was evaluated by normally non-noxious palpation of the distal femur every second for 2 minutes. Following the 2-minute palpation, the mice were placed in the observation box and their palpation-induced guarding and flinching behavior was measured for an additional 2 minutes, as discussed above.

[4] = test system: NCI-H460 human lung carcinoma cells; conditions: for final tumor weights reduced by: at study termination
MRMT-1 cells = experiment: Tactile (mechanical) allodynia in the MRMT-1 model; format: in vivo, rat
Experimental: Rat MRMT-1 bone metastasis model. Inoculation of rat mammary MRMT-1 adenocarcinoma cells into tibiae has been described as a bone metastasis model (Medhurst S J, et al., Pain 2002; 96:129-40. An adaptation of the model (Roudier M P, et al., Clin Exp Metastasis 2006, 23:167-75) was performed by MDS Pharma Services (Bothel, Wash.). Female Sprague-Dawley rats (Harlan Sprague Dawley, Inc., Indianapolis, Ind.) approximately 125-150 grams were acclimated one week. The animals were anesthetized with ketamine/xylazine, and the right leg area was shaved and scrubbed with chlorhexadine and 70% ethanol (SOP-SUR026). A 1-cm rostral-caudal incision was made in the skin over the top half of the tibia. […] Microradiographs were scored for tumor-induced osteolysis as follows: 0, no signs of destruction; 1, one to three small radiolucent lesions; 2, three to six lesions and loss of medullary bone; 3, loss of medullary bone and erosion of cortical bone; 4, full thickness uni-cortical bone loss; 5, full thickness bi-cortical bone loss and/or displaced skeletal fracture. […] For each tibia, the numbers of tumor-associated TRAP^+ osteoclasts were counted in the three 200×-fields with highest osteoclast frequency. […]
Pain Behavioral Assessments. […] The behavioral test for tactile allodynia, measured prior to surgery, was used for randomization of animals to the treatment groups. […]

[5] = JNJ-141 20 mpk oral twice daily
[6] = JNJ-141 60 mpk oral twice daily
[7] = 60 mg/kg oral twice daily, tumor mice
[8] = 120 mg/kg oral twice daily, sham mice
[9] = 120 mg/kg oral twice daily, tumor mice
[10] = 25 mg/kg oral twice daily, mean ± SEM
[11] = 50 mg/kg oral twice daily, mean ± SEM
[12] = 100 mg/kg oral twice daily, mean ± SEM

## CN(C)CC(=O)N1CCC(c2ccc(NC(=O)c3nc(C#N)c[nH]3)c(C3=CCCCC3)c2)CC1 [JNJ-141, 4-cyano-N-[2-(1-cyclohexen-1-yl)-4-[1-[(dimethylamino)acetyl]-4-piperidinyl]phenyl]-1H-imidazole-2-carboxamide monohydrochloride]
H460, MDA-MB-231, A375; 5 μM, monohydrochloride
  growth factor-independent (serum-dependent) proliferation in culture: did not inhibit
H460, MDA-MB-231, A375; Homo sapiens, H460, MDA-MB-231, A375, no stimulus, determined once
  IC50: > 5 µM
[1]; [5]
  Microradiograph score (five point visual score): 0.75 ± 0.17
  Osteoclast Counts (TRAP positive cells, mean of three 200x fields): 3.7 ± 0.7
  Tumor vol score (three point visual score): 1.75 ± 0.48
[1]; JNJ-141 20 or 60 mg/kg oral twice daily
  tumor-associated osteoclasts reduced by: greater than 95%
[1]; [6]
  Microradiograph score (five point visual score): 0.83 ± 0.18
  Osteoclast Counts (TRAP positive cells, mean of three 200x fields): 2.6 ± 1.5
  Trabecular bone vol score (three point visual score): 2.33 ± 0.23
  Tumor vol score (three point visual score): 1.50 ± 0.55
[2]; 60 mg/kg oral twice daily, NCTC 2472 tumor mice
  Bone erosion score (visual, scale 0-5, microradiographs): 3.5
[2]; [7]
  Macrophage Counts (CD68 positive cells): 84** Counts per high powered field
  Osteoclast Counts (TRACP positive cells): 79** Counts per high powered field
  Tumor area % marrow: 100%
[2]; 120 mg/kg oral twice daily, NCTC 2472 tumor mice
  Bone erosion score (visual, scale 0-5, microradiographs): 2.0**
[2]; 120 mg/kg oral twice daily, sham (saline) mice
  Bone erosion score (visual, scale 0-5, microradiographs): 0.25
[2]; [8]
  Macrophage Counts (CD68 positive cells): 28 Counts per high powered field
  Osteoclast Counts (TRACP positive cells): 41 Counts per high powered field
[2]; [9]
  Macrophage Counts (CD68 positive cells): 140* Counts per high powered field
  Osteoclast Counts (TRACP positive cells): 147 Counts per high powered field
  Tumor area % marrow: 90%
[3]; [7]
  PIF Day 7 (palpation-induced flinches over 2 minutes): 10.3
  PIF Day 9 (palpation-induced flinches over 2 minutes): 14.3
  PIF Day 11 (palpation-induced flinches over 2 minutes): 16.3
  PIF Day 13 (palpation-induced flinches over 2 minutes): 12.7*
  PIF Day 15 (palpation-induced flinches over 2 minutes): 11.7**
  PIG Day 15 (palpation-induced guarding time over 2 minutes): 9.1* sec
  SF Day 15 (spontaneous flinches over 2 minutes): 10*
  SG Day 15 (spontaneous guarding time over 2 minutes): 7.9 s
[3]; [8]
  PIF Day 7 (palpation-induced flinches over 2 minutes): 2.5
  PIF Day 9 (palpation-induced flinches over 2 minutes): 1.3
  PIF Day 11 (palpation-induced flinches over 2 minutes): 1.3
  PIF Day 13 (palpation-induced flinches over 2 minutes): 1.8
  PIF Day 15 (palpation-induced flinches over 2 minutes): 1.8
  PIG Day 15 (palpation-induced guarding time over 2 minutes): 0.9 s
  SF Day 15 (spontaneous flinches over 2 minutes): 1.3
  SG Day 15 (spontaneous guarding time over 2 minutes): 0.6 s
[3]; [9]
  PIF Day 7 (palpation-induced flinches over 2 minutes): 9.5
  PIF Day 9 (palpation-induced flinches over 2 minutes): 7.8**
  PIF Day 11 (palpation-induced flinches over 2 minutes): 8.5**
  PIF Day 13 (palpation-induced flinches over 2 minutes): 10.3**
  PIF Day 15 (palpation-induced flinches over 2 minutes): 9.3**
  PIG Day 15 (palpation-induced guarding time over 2 minutes): 6.4** sec
  SF Day 15 (spontaneous flinches over 2 minutes): 8.5**
  SG Day 15 (spontaneous guarding time over 2 minutes): 6.1** sec
[3]; 120 mg/kg, Day 15
  palpation induced flinching reduced by: approximately 50%
[4]; 25 mg/kg oral twice daily (qd on weekends) from day 3, mean ± SEM
  Mean final tumor weight, mg: 1,257 ± 209 mg
[4]; [10]
  Macrophage density, % area (F4/80 positive, 200X-field): 4.3 ± 0.68 % area
  Microvascular density, % area (CD31 positive): 3.73 ± 0.81 % area
[4]; 25 mg/kg oral
  final tumor weights reduced by: 21%
[4]; 50 mg/kg oral twice daily (qd on weekends) from day 3, mean ± SEM
  Mean final tumor weight, mg: 1,070 ± 121 mg
[4]; [11]
  Macrophage density, % area (F4/80 positive, 200X-field): 2.6 ± 0.57 % area
  Microvascular density, % area (CD31 positive): 2.10 ± 0.57 % area
[4]; 50 mg/kg oral
  final tumor weights reduced by: 32%
[4]; 100 mg/kg oral twice daily (qd on weekends) from day 3, mean ± SEM
  Mean final tumor weight: 870 ± 94 mg
[4]; [12]
  Macrophage density, % area (F4/80 positive, 200X-field): 0.31 ± 0.14 % area
  Microvascular density, % area (CD31 positive): 1.25 ± 0.16 % area
[4]; 100 mg/kg oral
  final tumor weights reduced by: 45%
[4]; highest dose (100 mg/kg)
  reduction in tumor vascularity (vessel density): 66%

## CN1CC[C@]23c4c5ccc(O)c4O[C@H]2[C@@H](O)C=C[C@H]3[C@H]1C5 [morphine]
MRMT-1 cells; morphine, from the 2nd time point forward
  mechanical allodynia of affected animals: reversed allodynia

## O=P(O)(O)C(O)(Cn1ccnc1)P(=O)(O)O [zoledronate, reference compound]
[1]; treated rats, day 17
  full thickness cortical bone lesions: not observed
[1]; zoledronate 0.03 mg/kg QOD sc
  tumor-associated osteoclasts reduced by: 64%
[1]; zoledronate 0.03 mpk QOD sc
  Microradiograph score (five point visual score): 0.38 ± 0.20
  Osteoclast Counts (TRAP positive cells, mean of three 200x fields): 21.0 ± 3.2
  Trabecular bone vol score (three point visual score): 2.63 ± 0.20
  Tumor vol score (three point visual score): 1.63 ± 0.20
MRMT-1 cells; zoledronate treatment
  mechanical allodynia compared to tumor-inoculated animals: decreased allodynia compared to tumor-inoculated animals but this effect did not reach statistical significance
